# Reference: ChEMBL document CHEMBL4422618, “Translational impact of novel widely pharmacological characterized mofezolac-derived COX-1 inhibitors combined with bortezomib on human multiple myeloma cell lines viability” (Eur J Med Chem, 2019)
# The source made the active and inactive calls. The rule behind the calls is not given here.
# Key:
# Platelet = experiment: Antiplatelet activity in human platelet rich plasma assessed as inhibition of arachidonic acid-induced platelet aggregation preincubated for 2 mins followed by arachidonic acid addition by turbidimetric method; format: functional, cell-based
# Plasma [1] = experiment: Anticoagulant activity in human platelet poor plasma assessed as activated partial thromboplastin time at 100 uM incubated for 15 mins at room temperature and subsequent incubation for 2 mins at 37 degreeC followed by cephalin addition and measured after 2 mins for every secs in presence of CaCl2; format: functional
# Plasma [2] = experiment: Anticoagulant activity in human platelet poor plasma assessed as prothrombin time at 100 uM incubated for 15 mins at room temperature and subsequent incubation for 2 mins at 37 degreeC followed by PBS addition and measured after 3 mins for every secs in presence of calcium thromboplastin; format: functional
# [3] = Hemolytic activity in erythrocytes (unknown origin) at 100 uM after 3 hrs by spectrophotometric analysis; format: ADME, cell-based, Erythrocyte; details: read-out: Activity
# [4] = Mutagenicity in Salmonella typhimurium TA97 at 500 uM by Ames test; format: toxicity; details: salmonella enterica subsp. enterica serovar typhimurium
# [5] = Mutagenicity in Salmonella typhimurium TA98 at 500 uM by Ames test; format: toxicity; details: salmonella enterica subsp. enterica serovar typhimurium
# [6] = Mutagenicity in Salmonella typhimurium TA100 at 500 uM by Ames test; format: toxicity; details: salmonella enterica subsp. enterica serovar typhimurium
# [7] = Mutagenicity in Salmonella typhimurium TA102 at 500 uM by Ames test; format: toxicity; details: salmonella enterica subsp. enterica serovar typhimurium
# [8] = Genotoxicity in Escherichia coli PQ35 at 500 uM after overnight incubation by SOS chromotest; format: toxicity
# [9] = Genotoxicity in Escherichia coli PQ37 at 500 uM after overnight incubation by SOS chromotest; format: toxicity
# RPMI-8226 [10] = experiment: Cytotoxicity against human RPMI8226 cells assessed as reduction in cell viability at […] after 48 hrs by CCK8 assay relative to control; format: functional
# NCI-H929 [11] = experiment: Potentiation of bortezomib-induced cytotoxicity against human NCI-H929 cells assessed as reduction in cell viability at […] after 48 hrs in presence of bortezomib by CCK8 assay; format: functional, cell-based
# NCI-H929 [12] = experiment: Potentiation of bortezomib-induced cytotoxicity against human NCI-H929 cells assessed as reduction in cell viability at 42 nM after 48 hrs in presence of bortezomib by CCK8 assay; format: functional, cell-based
# RPMI-8226 [13] = experiment: Potentiation of bortezomib-induced cytotoxicity against human RPMI8226 cells assessed as reduction in cell viability at 1.7 uM after 48 hrs in presence of bortezomib by CCK8 assay; format: functional
# NCI-H929 [14] = experiment: Induction of apoptosis in human NCI-H929 cells assessed as early apoptotic cells at 1.7 uM after 48 hrs by Annexin-V/propidium iodide staining based flow cytometric method (reference value: 17.1%); format: functional
# NCI-H929 [15] = experiment: Induction of apoptosis in human NCI-H929 cells assessed as late apoptotic cells at 1.7 uM after 48 hrs by Annexin-V/propidium iodide staining based flow cytometric method (reference value: 0.23%); format: functional
# NCI-H929 [16] = experiment: Induction of apoptosis in human NCI-H929 cells assessed as necrotic cells at 1.7 uM after 48 hrs by Annexin-V/propidium iodide staining based flow cytometric method (reference value: 0.0034%); format: functional
# NCI-H929 [17] = experiment: Induction of apoptosis in human NCI-H929 cells assessed as viable cells at 1.7 uM after 48 hrs by Annexin-V/propidium iodide staining based flow cytometric method (reference value: 82.6%); format: functional; details: NCI-H929, 48 h, read-out: Activity
# NCI-H929 [18] = experiment: Induction of apoptosis in human NCI-H929 cells assessed as early apoptotic cells at 1.7 uM after 48 hrs in presence of bortezomib by Annexin-V/propidium iodide staining based flow cytometric method (reference value: 17.1%); format: functional
# NCI-H929 [19] = experiment: Induction of apoptosis in human NCI-H929 cells assessed as late apoptotic cells at 1.7 uM after 48 hrs in presence of bortezomib by Annexin-V/propidium iodide staining based flow cytometric method (reference value: 0.23%); format: functional
# NCI-H929 [20] = experiment: Induction of apoptosis in human NCI-H929 cells assessed as necrotic cells at 1.7 uM after 48 hrs in presence of bortezomib by Annexin-V/propidium iodide staining based flow cytometric method (reference value: 0.0034%); format: functional
# NCI-H929 [21] = experiment: Induction of apoptosis in human NCI-H929 cells assessed as viable cells at 1.7 uM after 48 hrs in presence of bortezomib by Annexin-V/propidium iodide staining based flow cytometric method (reference value: 82.6%); format: functional; details: NCI-H929, 48 h, read-out: Activity
# RPMI-8226 [22] = experiment: Induction of apoptosis in human RPMI8226 cells assessed as early apoptotic cells at 1.7 uM after 48 hrs in presence of bortezomib by Annexin-V/propidium iodide staining based flow cytometric method (reference value: 1.05%); format: functional
# RPMI-8226 [23] = experiment: Induction of apoptosis in human RPMI8226 cells assessed as late apoptotic cells at 1.7 uM after 48 hrs in presence of bortezomib by Annexin-V/propidium iodide staining based flow cytometric method (reference value: 0.21%); format: functional
# RPMI-8226 [24] = experiment: Induction of apoptosis in human RPMI8226 cells assessed as necrotic cells at 1.7 uM after 48 hrs in presence of bortezomib by Annexin-V/propidium iodide staining based flow cytometric method (reference value: 0.090%); format: functional
# RPMI-8226 [25] = experiment: Induction of apoptosis in human RPMI8226 cells assessed as viable cells at 1.7 uM after 48 hrs in presence of bortezomib by Annexin-V/propidium iodide staining based flow cytometric method (reference value: 98.7%); format: functional; details: RPMI-8226, 48 h, read-out: Activity
# RPMI-8226 [26] = experiment: Cell cycle arrest in human RPMI8226 cells assessed as accumulation at G0/G1 phase at 1.7 uM in presence of bortezomib after 48 hrs by propidium iodide/RNase staining based flow cytometric method relative to bortezomib; format: functional
# RPMI-8226 [27] = experiment: Cell cycle arrest in human RPMI8226 cells assessed as accumulation at S phase at 1.7 uM in presence of bortezomib after 48 hrs by propidium iodide/RNase staining based flow cytometric method relative to bortezomib; format: functional
# RPMI-8226 [28] = experiment: Cell cycle arrest in human RPMI8226 cells assessed as reduction in accumulation at G2/M phase at 1.7 uM in presence of bortezomib after 48 hrs by propidium iodide/RNase staining based flow cytometric method relative to bortezomib; format: functional
# RPMI-8226 [29] = experiment: Cell cycle arrest in human RPMI8226 cells assessed as accumulation at G0/G1 phase at 1.7 uM after 48 hrs by propidium iodide/RNase staining based flow cytometric method; format: functional
# RPMI-8226 [30] = experiment: Cell cycle arrest in human RPMI8226 cells assessed as accumulation at S phase at 1.7 uM after 48 hrs by propidium iodide/RNase staining based flow cytometric method; format: functional
structure (smiles),measurement,setting,value
CC(=O)Oc1ccccc1C(=O)O [ASPIRIN],IC50,Platelet,1110 nM
same,APTT,Plasma [1],50.3 s
same,PT,Plasma [2],14.6 s
same,"hemolysis at 3 h, 100 µM",[3],0%
same,Activity,[4],Non-Toxic
same,Activity,[5],Non-Toxic
same,Activity,[6],Non-Toxic
same,Activity,[7],Non-Toxic
same,Activity,[8],Non-Toxic
same,Activity,[9],Non-Toxic
same,Activity,RPMI-8226 [10],7%
same,Activity,NCI-H929 [11],inactive
same,Activity,NCI-H929 [12],inactive
same,Activity,RPMI-8226 [13],66%
same,Activity,NCI-H929 [14],16%
same,Activity,NCI-H929 [15],0.072%
same,Activity,NCI-H929 [16],0.016%
same,viability at 1.7 µM,NCI-H929 [17],83.9%
same,Activity,NCI-H929 [18],54.6%
same,Activity,NCI-H929 [19],0.12%
same,Activity,NCI-H929 [20],0.026%
same,viability at 1.7 µM,NCI-H929 [21],45.2%
same,Activity,RPMI-8226 [22],7.95%
same,Activity,RPMI-8226 [23],0.48%
same,Activity,RPMI-8226 [24],0.014%
same,viability at 1.7 µM,RPMI-8226 [25],91.6%
same,Activity,RPMI-8226 [26],Active
same,Activity,RPMI-8226 [27],Active
same,Activity,RPMI-8226 [28],Active
same,Activity,RPMI-8226 [29],inactive
same,Activity,RPMI-8226 [30],inactive
